{"source": "patent EP0908457B1", "about": "“3-(1,2-benzisothiazol- and isoxazol-5-Y1)-2,4(1H,3H)-pyrimidinedione or thione and 3-(1,2-benzisothiazol- and isoxazol-5-y1)-4(3H)-pyrimidinone or thione herbicidal agents” (BASF AKTIENGESELLSCHAFT, priority 1997, dated 1999)", "key": {"[1]": {"test_system": "Echinochloa oryzoides (Ard.) Fritsch.", "test": "Preemergence weed control under flooded paddy conditions, ECHORC (Watergrass (Calif.))", "format": "in vivo", "conditions": "flooded paddy; for ECHORC: preemergence weeds, herbicidal effect rating 0-9, three to four weeks after treatment; for herbicidal effect rating, ECHORC / ECHORC herbicidal rating: preemergence; for herbicidal effect rating, ECHORC: rated 3-4 weeks after treatment; for ECHORC herbicidal rating: rated three to four weeks after treatment"}, "Cyperus iria": {"test_system": "Cyperus iria", "test": "Preemergence weed control under flooded paddy conditions, CYPIR (Rice Flatsedge)", "format": "in vivo", "conditions": "flooded paddy; for CYPIR: preemergence weeds, herbicidal effect rating 0-9, three to four weeks after treatment; for herbicidal effect rating, CYPIR / CYPIR herbicidal rating: preemergence; for herbicidal effect rating, CYPIR: rated 3-4 weeks after treatment; for CYPIR herbicidal rating: rated three to four weeks after treatment"}, "[2]": {"test_system": "Cyperus serotinus, Rottb.", "test": "Preemergence weed control under flooded paddy conditions, CYPSE (Flatsedge)", "format": "in vivo", "conditions": "for CYPSE: preemergence weeds, herbicidal effect rating 0-9, three to four weeks after treatment; for herbicidal effect rating, CYPSE: rated 3-4 weeks after treatment"}, "[3]": {"test_system": "Monochoria vaginalis, Presl.", "test": "Preemergence weed control under flooded paddy conditions, MOOVA (Monochoria)", "format": "in vivo", "conditions": "flooded paddy; for MOOVA: preemergence weeds, herbicidal effect rating 0-9, three to four weeks after treatment; for herbicidal effect rating, MOOVA / MOOVA herbicidal rating: preemergence; for herbicidal effect rating, MOOVA: rated 3-4 weeks after treatment; for MOOVA herbicidal rating: rated three to four weeks after treatment"}, "Sagittaria pygmaea, L.": {"test_system": "Sagittaria pygmaea, L.", "test": "Preemergence weed control under flooded paddy conditions, SAGPY (Arrowhead (Pygmaea))", "format": "in vivo", "conditions": "flooded paddy; for SAGPY: preemergence weeds, herbicidal effect rating 0-9, three to four weeks after treatment; for herbicidal effect rating, SAGPY: rated 3-4 weeks after treatment"}, "[4]": {"test_system": "Oryza sativa, (L.) Tebonnet", "test": "Rice tolerance to post-transplant applications under flooded paddy conditions (Example 187), ORYSAT (Rice, Tebonnet); for herbicidal effect rating ORYSAT: meaning of each grade not given here", "conditions": "for ORYSAT: herbicidal effect rating 0-9, three to four weeks after treatment; for herbicidal effect rating ORYSAT: rated 3-4 weeks after treatment; for ORYSAT herbicidal rating (rice tolerance): rated three to four weeks after treatment"}, "[5]": {"conditions": "Rate 0.0320 kg/ha, preemergence"}, "[6]": {"conditions": "Rate 0.0620 kg/ha, preemergence"}, "[7]": {"conditions": "Rate 0.1250 kg/ha, preemergence"}, "[8]": {"conditions": "Rate 0.2500 kg/ha, preemergence"}, "[9]": {"conditions": "Rate 0.5000 kg/ha, preemergence"}, "[10]": {"conditions": "0.0320 kg/ha, preemergence, rated three to four weeks after treatment"}}, "data": [{"smiles": "COC(=O)C(C)Oc1cc2c(cc1-c1nsc3ccc(-n4c(=O)cc(C(F)(F)F)n(C)c4=O)cc13)CCC2", "note": "(centres unmarked) [Example 435, Propionic acid, 2-{{6-{5-[3,6-dihydro-3-methyl-2,6-dioxo-4-(trifluoromethyl)-1(2H)-pyrimidinyl]-1,2-benzisothiazol-3-yl}-5-indanyl}oxy}-, methyl ester]", "values": [{"measurement": "ECHORC", "setting": "[1]; 0.0320 kg/ha", "result": 5.0}, {"measurement": "ECHORC", "setting": "[1]; 0.0620 kg/ha", "result": 7.0}, {"measurement": "ECHORC", "setting": "[1]; 0.1250 kg/ha", "result": 7.0}, {"measurement": "ECHORC", "setting": "[1]; 0.2500 kg/ha", "result": 9.0}, {"measurement": "CYPIR", "setting": "Cyperus iria; 0.0320 kg/ha", "result": 0.0}, {"measurement": "CYPIR", "setting": "Cyperus iria; 0.0620 kg/ha", "result": 0.0}, {"measurement": "CYPIR", "setting": "Cyperus iria; 0.1250 kg/ha", "result": 2.0}, {"measurement": "CYPIR", "setting": "Cyperus iria; 0.2500 kg/ha", "result": 3.0}, {"measurement": "CYPSE", "setting": "[2]; 0.0620 kg/ha", "result": 0.0}, {"measurement": "CYPSE", "setting": "[2]; 0.1250 kg/ha", "result": 3.0}, {"measurement": "CYPSE", "setting": "[2]; 0.2500 kg/ha", "result": 2.0}, {"measurement": "MOOVA", "setting": "[3]; 0.0320 kg/ha", "result": 9.0}, {"measurement": "MOOVA", "setting": "[3]; 0.0620 kg/ha", "result": 9.0}, {"measurement": "MOOVA", "setting": "[3]; 0.1250 kg/ha", "result": 9.0}, {"measurement": "MOOVA", "setting": "[3]; 0.2500 kg/ha", "result": 9.0}, {"measurement": "SAGPY", "setting": "Sagittaria pygmaea, L.; 0.0320 kg/ha", "result": 0.0}, {"measurement": "SAGPY", "setting": "Sagittaria pygmaea, L.; 0.0620 kg/ha", "result": 0.0}, {"measurement": "SAGPY", "setting": "Sagittaria pygmaea, L.; 0.1250 kg/ha", "result": 0.0}, {"measurement": "SAGPY", "setting": "Sagittaria pygmaea, L.; 0.2500 kg/ha", "result": 6.0}, {"measurement": "ORYSAT", "setting": "[4]; 0.0320 kg/ha", "result": 2.0}, {"measurement": "ORYSAT", "setting": "[4]; 0.0620 kg/ha", "result": 1.0}, {"measurement": "ORYSAT", "setting": "[4]; 0.1250 kg/ha", "result": 2.0}, {"measurement": "ORYSAT", "setting": "[4]; 0.2500 kg/ha", "result": 2.0}]}, {"smiles": "Cc1ccc(OCC(N)=O)c(-c2nsc3ccc(-n4c(=O)cc(C(F)(F)F)n(C)c4=O)cc23)c1", "note": "[Example 539, Acetamide, 2-{{2-{5-[3,6-dihydro-3-methyl-2,6-dioxo-4-(trifluoromethyl)-1(2H)-pyrimidinyl]-1,2-benzisothiazol-3-yl}-p-tolyl}oxy}-]", "values": [{"measurement": "herbicidal effect rating, ECHORC", "setting": "[1]; Rate 0.0320 kg/ha", "result": 2.1}, {"measurement": "herbicidal effect rating, ECHORC", "setting": "[1]; Rate 0.0620 kg/ha", "result": 3.0}, {"measurement": "herbicidal effect rating, ECHORC", "setting": "[1]; Rate 0.1250 kg/ha", "result": 4.7}, {"measurement": "herbicidal effect rating, ECHORC", "setting": "[1]; Rate 0.2500 kg/ha", "result": 7.0}, {"measurement": "herbicidal effect rating, ECHORC", "setting": "[1]; Rate 0.5000 kg/ha", "result": 9.0}, {"measurement": "herbicidal effect rating, CYPIR", "setting": "Cyperus iria; Rate 0.0320 kg/ha", "result": 0.0}, {"measurement": "herbicidal effect rating, CYPIR", "setting": "Cyperus iria; Rate 0.0620 kg/ha", "result": 2.0}, {"measurement": "herbicidal effect rating, CYPIR", "setting": "Cyperus iria; Rate 0.1250 kg/ha", "result": 6.0}, {"measurement": "herbicidal effect rating, CYPIR", "setting": "Cyperus iria; Rate 0.2500 kg/ha", "result": 8.0}, {"measurement": "herbicidal effect rating, CYPIR", "setting": "Cyperus iria; Rate 0.5000 kg/ha", "result": 9.0}, {"measurement": "herbicidal effect rating, CYPSE", "setting": "[2]; [5]", "result": 0.0}, {"measurement": "herbicidal effect rating, CYPSE", "setting": "[2]; [6]", "result": 0.0}, {"measurement": "herbicidal effect rating, CYPSE", "setting": "[2]; [7]", "result": 0.0}, {"measurement": "herbicidal effect rating, CYPSE", "setting": "[2]; [8]", "result": 0.0}, {"measurement": "herbicidal effect rating, CYPSE", "setting": "[2]; [9]", "result": 2.0}, {"measurement": "herbicidal effect rating, MOOVA", "setting": "[3]; Rate 0.0320 kg/ha", "result": 8.0}, {"measurement": "herbicidal effect rating, MOOVA", "setting": "[3]; Rate 0.0620 kg/ha", "result": 9.0}, {"measurement": "herbicidal effect rating, MOOVA", "setting": "[3]; Rate 0.1250 kg/ha", "result": 9.0}, {"measurement": "herbicidal effect rating, MOOVA", "setting": "[3]; Rate 0.2500 kg/ha", "result": 9.0}, {"measurement": "herbicidal effect rating, MOOVA", "setting": "[3]; Rate 0.5000 kg/ha", "result": 9.0}, {"measurement": "herbicidal effect rating, SAGPY", "setting": "Sagittaria pygmaea, L.; [5]", "result": 0.0}, {"measurement": "herbicidal effect rating, SAGPY", "setting": "Sagittaria pygmaea, L.; [6]", "result": 0.0}, {"measurement": "herbicidal effect rating, SAGPY", "setting": "Sagittaria pygmaea, L.; [7]", "result": 1.0}, {"measurement": "herbicidal effect rating, SAGPY", "setting": "Sagittaria pygmaea, L.; [8]", "result": 4.0}, {"measurement": "herbicidal effect rating, SAGPY", "setting": "Sagittaria pygmaea, L.; [9]", "result": 9.0}, {"measurement": "herbicidal effect rating ORYSAT", "setting": "[4]; Rate 0.0320 kg/ha", "result": 0.0}, {"measurement": "herbicidal effect rating ORYSAT", "setting": "[4]; Rate 0.0620 kg/ha", "result": 1.0}, {"measurement": "herbicidal effect rating ORYSAT", "setting": "[4]; Rate 0.1250 kg/ha", "result": 1.0}, {"measurement": "herbicidal effect rating ORYSAT", "setting": "[4]; Rate 0.2500 kg/ha", "result": 1.0}, {"measurement": "herbicidal effect rating ORYSAT", "setting": "[4]; Rate 0.5000 kg/ha", "result": 5.0}]}, {"smiles": "CSCOCc1nsc2ccc(-n3c(=O)cc(C(F)(F)F)n(C)c3=O)cc12", "note": "[Example 484, 2,4(1H,3H)-Pyrimidinedione, 1-methyl-3-{3-{[(methylthio)methoxy]methyl}-1,2-benzisothiazol-5-yl}-6-(trifluoromethyl)-]", "values": [{"measurement": "ECHORC herbicidal rating", "setting": "[1]; 0.0320 kg/ha", "result": 5.0}, {"measurement": "ECHORC herbicidal rating", "setting": "[1]; 0.0620 kg/ha", "result": 4.0}, {"measurement": "ECHORC herbicidal rating", "setting": "[1]; 0.1250 kg/ha", "result": 7.0}, {"measurement": "ECHORC herbicidal rating", "setting": "[1]; 0.2500 kg/ha", "result": 9.0}, {"measurement": "CYPIR herbicidal rating", "setting": "Cyperus iria; 0.0320 kg/ha", "result": 4.0}, {"measurement": "CYPIR herbicidal rating", "setting": "Cyperus iria; 0.0620 kg/ha", "result": 4.0}, {"measurement": "CYPIR herbicidal rating", "setting": "Cyperus iria; 0.1250 kg/ha", "result": 6.0}, {"measurement": "CYPIR herbicidal rating", "setting": "Cyperus iria; 0.2500 kg/ha", "result": 9.0}, {"measurement": "CYPSE herbicidal rating", "setting": "[2]; [10]", "result": 0.0}, {"measurement": "MOOVA herbicidal rating", "setting": "[3]; 0.0320 kg/ha", "result": 7.0}, {"measurement": "MOOVA herbicidal rating", "setting": "[3]; 0.0620 kg/ha", "result": 9.0}, {"measurement": "MOOVA herbicidal rating", "setting": "[3]; 0.1250 kg/ha", "result": 9.0}, {"measurement": "MOOVA herbicidal rating", "setting": "[3]; 0.2500 kg/ha", "result": 9.0}, {"measurement": "SAGPY herbicidal rating", "setting": "Sagittaria pygmaea, L.; [10]", "result": 5.0}, {"measurement": "ORYSAT herbicidal rating (rice tolerance)", "setting": "[4]; 0.0320 kg/ha", "result": 5.0}, {"measurement": "ORYSAT herbicidal rating (rice tolerance)", "setting": "[4]; 0.0620 kg/ha", "result": 5.0}, {"measurement": "ORYSAT herbicidal rating (rice tolerance)", "setting": "[4]; 0.1250 kg/ha", "result": 6.0}, {"measurement": "ORYSAT herbicidal rating (rice tolerance)", "setting": "[4]; 0.2500 kg/ha", "result": 6.0}]}]}
